These results are taken from PubChem BioAssay (NCI).

“And” between values parts separate entries of the source, which are not always exact repeats. Equal entries are not always repeated.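 Method: 48-hour compound exposure of cells in 96-well plates, five concentrations, linear interpolation of endpoints. Abbreviation: GI50, concentration required for 50% inhibition of growth. TGI marks complete inhibition of growth.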

Test systems include KM20L2 colon; LXFL 529 NSCLC; M19-MEL melanoma; NCI-H23 lung; MOLT-4 leukemia; UACC-62 melanoma; DMS 273 small cell lung; DMS 114 small cell lung; SNB-78 CNS; DLD-1 colon; HOP-18 NSCLC; P388 leukemia; SN12K1 renal; XF 498 CNS.
What all share (test): NCI tumour cell line growth inhibition, 48 h

Turning to `Cc1c2n(c(=O)[nH]c1=O)C1OC(CO)C(O2)C1N=[N+]=[N-]` (configuration not stated), the TGI in the assay on KM20L2 colon, in the assay on LXFL 529 NSCLC, with M19-MEL melanoma, in the assay on NCI-H23 lung, with MOLT-4 leukemia and in the assay on UACC-62 melanoma was above 100 µM each time. Also, the TGI in the assay on DMS 273 small cell lung, in the assay with DMS 114 small cell lung, in the assay on SNB-78 CNS and in the assay on DLD-1 colon was above 100 µM in each case.

Turning to `COc1cc2c(c(OC)c1O)-c1ccc(SC)c(=O)cc1C(NC(C)=O)CC2` (configuration not stated), the TGI was 0.0246 µM with KM20L2 colon; above 100 µM with LXFL 529 NSCLC; above 100 µM in the assay on M19-MEL melanoma; 3.79 µM in the assay with NCI-H23 lung; above 100 µM with MOLT-4 leukemia; above 100 µM with UACC-62 melanoma. Besides, the TGI in the assay with DMS 273 small cell lung is above 100 µM; in the assay with DMS 114 small cell lung it was below 0.0143 µM; with SNB-78 CNS it was above 100 µM; in the assay with DLD-1 colon it was above 100 µM; in the assay on HOP-18 NSCLC, above 100 µM.

As for `N/C(=N\N=C/c1ccc(O)c(O)c1O)NO`, the TGI in the assay on KM20L2 colon is 82.5 µM; in the assay with P388 leukemia, 29.4 µM; in the assay with M19-MEL melanoma, 48.1 µM; in the assay on SN12K1 renal, 34.7 µM; in the assay on NCI-H23 lung it was 68.4 µM; in the assay on MOLT-4 leukemia, above 66.6 µM. Further, the TGI with UACC-62 melanoma was 41.5 µM; with DMS 273 small cell lung, 18.5 µM; in the assay with XF 498 CNS, above 100 µM; with DMS 114 small cell lung it was 54.8 µM; in the assay on SNB-78 CNS, above 79.4 µM; in the assay with DLD-1 colon it was 51.2 µM. The compound further came in with a TGI in the assay with HOP-18 NSCLC above 100 µM.

With `C=C1C(=O)[C@@]23CC[C@H]4[C@@](C)(CCC[C@@]4(C)C(=O)OC)[C@@H]2CC[C@]1(O)C3`, the GI50 with KM20L2 colon is 1.91 µM; in the assay with M19-MEL melanoma, 1.13 µM; in the assay with SN12K1 renal, 1.67 µM; with NCI-H23 lung it was 2.41 µM; in the assay with UACC-62 melanoma, 1.33 µM; with DMS 273 small cell lung, 1.32 µM. Moreover, the TGI was 3.83 µM in the assay on KM20L2 colon; 0.424 µM in the assay on P388 leukemia; 2.46 µM and 2.91 µM in the assay on M19-MEL melanoma; 3.15 µM and 2.82 µM with SN12K1 renal; 5.05 µM and 2.96 µM with NCI-H23 lung; 0.98 µM in the assay on MOLT-4 leukemia. The TGI in the assay with UACC-62 melanoma was 2.78 µM and 2.95 µM; in the assay with DMS 273 small cell lung it was 2.66 µM and 3.08 µM; in the assay on XF 498 CNS, 3.17 µM and 3.15 µM; with DLD-1 colon, 1.33 µM; in the assay on HOP-18 NSCLC it was 3.62 µM and 3.51 µM.

As for `S=C1NCCN1`, the TGI with KM20L2 colon, with LXFL 529 NSCLC, in the assay with M19-MEL melanoma, in the assay with NCI-H23 lung, in the assay with MOLT-4 leukemia and in the assay on UACC-62 melanoma was above 100 µM in each case. In addition, the TGI in the assay with DMS 273 small cell lung, in the assay on XF 498 CNS, in the assay on DMS 114 small cell lung, in the assay with SNB-78 CNS and in the assay on DLD-1 colon was above 100 µM each time.

`C[n+]1c2ccccc2c(NCC(=O)O)c2ccccc21`: the TGI with KM20L2 colon, with LXFL 529 NSCLC, in the assay with M19-MEL melanoma, in the assay on NCI-H23 lung, in the assay with MOLT-4 leukemia and in the assay on UACC-62 melanoma was above 100 µM throughout. In addition, the TGI in the assay on DMS 273 small cell lung, with DMS 114 small cell lung, with SNB-78 CNS, with DLD-1 colon and in the assay with HOP-18 NSCLC was above 100 µM in each case.

With `O=C1N(Cl)C(=O)C(c2ccc(Cl)cc2)(c2ccc(Cl)cc2)N1Cl`, the TGI with KM20L2 colon, with LXFL 529 NSCLC, with M19-MEL melanoma, with NCI-H23 lung, with MOLT-4 leukemia and with DMS 273 small cell lung was above 100 µM each time. Also, the TGI in the assay on XF 498 CNS, in the assay on DMS 114 small cell lung, in the assay with DLD-1 colon and in the assay with HOP-18 NSCLC was above 100 µM in each case.

Take `C=CCC1(O)CC(n2cc(C)c(=O)[nH]c2=O)OC1CO[Si](C)(C)C(C)(C)C` (configuration not stated): the TGI in the assay on NCI-H23 lung, in the assay on MOLT-4 leukemia and with UACC-62 melanoma was above 100 µM each time.

As for `Cc1ccc(Cc2n[nH]c(=O)[nH]2)cc1`, the TGI with NCI-H23 lung, in the assay on MOLT-4 leukemia and with UACC-62 melanoma was above 100 µM throughout.

`Nc1ncc(Br)c(NCC2(CO)CCC2)n1`: the TGI with NCI-H23 lung, in the assay with MOLT-4 leukemia and in the assay with UACC-62 melanoma was above 100 µM in each case.

As for `CC(C)(C)c1cc(C(=O)/C=C/c2c(Cl)cccc2Cl)cc(C(C)(C)C)c1O`, the TGI in the assay with NCI-H23 lung was 48.9 µM; in the assay on MOLT-4 leukemia it was above 56.5 µM; with UACC-62 melanoma, 30.3 µM.

Take `CC1(C)CCc2ccc(OCCC(=O)O)cc2O1`: the TGI in the assay with LXFL 529 NSCLC, in the assay on M19-MEL melanoma, with NCI-H23 lung, in the assay on MOLT-4 leukemia, with UACC-62 melanoma and in the assay with DMS 273 small cell lung was above 100 µM each time. For the same compound, the TGI with DMS 114 small cell lung, with SNB-78 CNS and in the assay with DLD-1 colon was above 100 µM each time.

In the case of `O=C(NC(=S)Nc1ccc(Br)cc1)c1ccc2c(c1)Sc1ccccc1S2`, the TGI turned out to be 45.4 µM in the assay with NCI-H23 lung, 26.7 µM in the assay with MOLT-4 leukemia and 74.8 µM with UACC-62 melanoma.

With `COc1c2c(cc3c1C(=O)c1c(O)cccc1C3=O)CC(O)CC2` (configuration not stated), the TGI is 47 µM in the assay on NCI-H23 lung, above 100 µM in the assay with MOLT-4 leukemia and above 100 µM in the assay on UACC-62 melanoma.

With `COc1cc(NC(C)c2ccc3c(c2)OCCO3)cc(OC)c1OC` (configuration not stated), the TGI with NCI-H23 lung was 64.7 µM; in the assay with MOLT-4 leukemia, above 100 µM; with UACC-62 melanoma, above 100 µM.

With `NC1c2c(Br)sc(N3CCCC3)c2C(=O)C1O` (configuration not stated), the TGI in the assay on NCI-H23 lung, in the assay with MOLT-4 leukemia and in the assay on UACC-62 melanoma was above 50 µM in each case.

As to `CCCN(CCC)CCc1ccc(OC2=CCN(C)CC2)cc1`, the TGI in the assay on NCI-H23 lung, in the assay with MOLT-4 leukemia and with UACC-62 melanoma was above 100 µM in each case.

In the case of `COc1cccc2c1C(=O)C1=C(C2=O)C(O)CC(C)(C)O1` (configuration not stated), the results for the TGI with NCI-H23 lung, in the assay with MOLT-4 leukemia and in the assay on UACC-62 melanoma were 74.5 µM, 82.6 µM and 60.9 µM, respectively.

For the compound `C1=CC2(C=CC13O[C@H](C1CCCCC1)[C@@H](C1CCCCC1)O3)O[C@H](C1CCCCC1)[C@@H](C1CCCCC1)O2`, the TGI in the assay with NCI-H23 lung, in the assay with MOLT-4 leukemia and with UACC-62 melanoma was above 50 µM each time.

Regarding `COc1ccc2c(c1)CC[C@@H]1[C@@H]2CC[C@]2(C)C(=O)/C(=C/c3ccc(N(C)C)cc3)C[C@@H]12`, the TGI with NCI-H23 lung, with MOLT-4 leukemia and with UACC-62 melanoma was above 100 µM in each case.

Regarding `O=[N+]([O-])c1cccc2nc3ccccc3c(NCCCCNc3c4ccccc4nc4cccc([N+](=O)[O-])c34)c12`, the TGI in the assay with NCI-H23 lung came to 0.159 µM; in the assay with MOLT-4 leukemia it was 0.0887 µM; in the assay with UACC-62 melanoma it was 0.302 µM.

Take `CC(=O)Nc1oc(C)c(C)c1S(=O)(=O)c1ccc(Cl)cc1`: the TGI with NCI-H23 lung, with MOLT-4 leukemia and in the assay with UACC-62 melanoma was above 100 µM each time.

In the case of `CN(C)CCNc1ccc([N+](=O)[O-])c2sc3ccccc3c(=O)c12`, the figures for the TGI with NCI-H23 lung, in the assay with MOLT-4 leukemia and in the assay on UACC-62 melanoma were 29.5 µM, above 100 µM and 16.8 µM, respectively.

In the case of `O=C1NC(N/N=C/c2ccccc2)=N/C1=C\c1ccco1`, the figures for the TGI in the assay with NCI-H23 lung, with MOLT-4 leukemia and in the assay with UACC-62 melanoma were 95.6 µM, above 100 µM and above 100 µM, respectively.

As for `Cn1c(=O)c2c3ccccc3n(C)c2n(C)c1=O`, the TGI in the assay on NCI-H23 lung, with MOLT-4 leukemia and with UACC-62 melanoma was above 100 µM throughout.

Regarding `Cc1ccc(N=N/C(=N/NC(=O)c2cc(Cl)ccc2O)c2ccc(N(CCC#N)CCC#N)cc2C)cc1`, the results for the TGI in the assay on NCI-H23 lung, with MOLT-4 leukemia and in the assay with UACC-62 melanoma were 55.9 µM, above 100 µM and 59.7 µM, respectively.

As to `CCCCS(=O)(=O)CCC(N)P(=O)(O)O` (configuration not stated), the TGI with NCI-H23 lung, in the assay on MOLT-4 leukemia and in the assay on UACC-62 melanoma was above 100 µM in each case.

In the case of `C=CC[C@H]1O[Si](C(C)(C)C)(C(C)(C)C)[C@H](C)[C@H]1C`, the TGI with NCI-H23 lung, in the assay on MOLT-4 leukemia and with UACC-62 melanoma was above 100 µM each time.

Consider `NC(=O)c1ccc(C(=O)Nc2ccc([As](=O)(O)O)cc2)cc1`, for which the TGI with NCI-H23 lung, in the assay on MOLT-4 leukemia and in the assay on UACC-62 melanoma was above 100 µM throughout.

Regarding `N#Cc1cccc2c1Sc1ccccc1N2`, the TGI in the assay on NCI-H23 lung was above 100 µM; with MOLT-4 leukemia, 85.7 µM; in the assay on UACC-62 melanoma, above 100 µM.

With `Cn1c2ccc([N+](=O)[O-])cc2c(=O)n1Cc1ccccc1F`, the TGI with NCI-H23 lung, in the assay on MOLT-4 leukemia and in the assay with UACC-62 melanoma was above 100 µM in each case.

For `C1=CC2C=CC(C=C1)P2c1ccccc1` (configuration not stated), the TGI in the assay on NCI-H23 lung, in the assay on MOLT-4 leukemia and in the assay with UACC-62 melanoma was above 100 µM in each case.

`C=C(C)[C@@H]1CCC2=C[C@@H](OC2=O)[C@@H](C(=C)C)C2=CC(C(=O)O)=C(C1)O2`: the TGI in the assay on NCI-H23 lung, in the assay on MOLT-4 leukemia and in the assay with UACC-62 melanoma was above 100 µM each time.
